Paper PMC6389703, “Identification of Biologically Active Ganoderma lucidum Compounds and Synthesis of Improved Derivatives That Confer Anti-cancer Activities in vitro” (Frontiers in Pharmacology, 2019)
Read-outs that look alike come from different tables or passages of the source.

Key:
[1] = system: MCF-7 cells; test: ROS measurement (CellROX green), MCF-7; type: cell-based, human
Procedure: (§1) SUM-149 or MDA-MB-231 were plated in 96-well plates at a density of 2 × 10^4 and 1 × 10^4 cells/well, respectively, in black 96-well clear bottom tissue culture plates and incubated for 24 h at 37°C. The mRuby-Mito-7 plasmid was obtained from Addgene (#55874 from Michael Davidson). A stable clone of MCF-7 was generated by using Fugene 6 (Roche) to transfect cells (2 × 10^5) with plasmid (2.0 μg) under neomycin selection. A stable cell line was selected by using G418 (300 μg/mL) for 2 weeks, sorted by flow cytometry, and maintained under G418 thereafter. Transfected MCF-7 cells were plated at a density of 2 × 10^4 cells/well in black 96-well clear bottom tissue culture plates and incubated overnight at 37°C. To test for ROS formation and remove background, cells were replenished with fresh PBS with 2% FBS and treated with the desired compounds for 1 h at 37°C. DMSO (0.5%) was used as a negative control, while Menadione (Mena, at 10 μM) or t-Butyl hydroperoxide (TBHP) at 100 μM final concentration were used as a positive control. To evaluate the compounds’ effects on ROS formation inhibition, the free radical scavenger N-acetyl cysteine (NAC) was used. Cells were treated with or without NAC (500 μM or 100 μM) for 1 h, then CellROX® green reagent (Molecular Probes #C10444) was added to a final concentration of 5 μM, and cells were incubated for an additional 30 min at 37°C. Cells were then washed 2× with PBS, followed by fixation with 4% paraformaldehyde (v/v) for 15 min, and 2 more washes with PBS. Fluorescence intensity was measured in a Clariostar® plate reader (BMG LABTECH, Cary, NC, United States) at 535 nm.

[2] = system: MDA-MB-231 cells; test: ROS measurement (CellROX green), MDA-MB-231; type: cell-based, human; details: EP 20 μM, 1 h
Procedure: as §1, with “Cells were treated with or without NAC (500 μM or 100 μM) for 1 h, then CellROX® green reagent (Molecular Probes #C10444) was added to a final concentration of 5 μM, and cells were incubated for an additional 30 min at 37°C. Cells were then washed 2× with PBS, followed by fixation with 4% paraformaldehyde (v/v) for 15 min, and 2 more washes with PBS.” left out

[3] = system: SUM-149 cells; test: ApoTox-Glo Triplex assay, SUM-149; type: cell-based, human; details: SUM-149, 24 h
Procedure: Cells (9.5 × 10^4/well in 75 μL of fresh medium) were dispensed in 96-well black flat bottom (8807BC, Corning) plates. The cells were incubated for 12 h at 37°C and then treated with compounds (25 μL) for 24 h. DMSO was used as a negative control, and staurosporine was used as the positive control. […] Then, the Caspase-Glo® 3/7 Reagent was added; plates were mixed briefly by orbital shaking (300-500 rpm for ∼30 s), followed by an additional 30 min incubation at RT. Then luminescence, which correlates with caspase 3/7 activation, was recorded with a plate reader to […] apoptosis induction.

[4] = system: additional cancer cellular models; test: Cell viability, additional cancer cellular models; type: cell-based; details: Supplementary Figure S2
Procedure: (§2) Either 1 × 10^3–4.8 × 10^3 or 4 × 10^2–1.2 × 10^3 cells were seeded to each well of 96- or 384-well white polystyrene flat-bottomed plates (3610 or 8804BC, Corning) in 100 μL or 30 μL media per well, respectively. The concentrations used were experimentally determined to ensure logarithmic growth during the duration of the experiment and prevent adverse effects on cell growth by DMSO exposure. The plates were incubated at 37°C in 5% CO2 for 24 h before treatment. Stock solutions of test compounds (10 mM in DMSO) in nine 3-fold serial dilutions were dispensed via pintool (Biomek). The final concentration of DMSO was 0.3% (v/v) in each well. […] Luminescence was recorded in an Envision plate reader (PerkinElmer).
(§3) For the CTG assay, 3 or 4 replicate assays were conducted for each experimental condition, and a minimum of 3 independent experiments were conducted for cellular assays. The mean luminescence of each experimental treatment group was normalized as a percentage of the mean intensity of untreated controls. EC50 values (μM) were calculated by Pipeline Pilot Software (Accelrys, Enterprise Platform, San Diego, CA, United States). EC50 values (μM) from the viability assay were calculated from dose response curve-fitting via non-linear regression by using GraphPad Prism (Version 7.0, San Diego, CA, United States). […]

[5] = system: SUM-149 cells; test: Cell viability assay, SUM-149; type: cell-based, human; details: for EC50: Homo sapiens, read-out: EC50, SUM-149 cell viability
Procedure: Either 1 × 10^3–4.8 × 10^3 or 4 × 10^2–1.2 × 10^3 cells were seeded to each well of 96- or 384-well white polystyrene flat-bottomed plates (3610 or 8804BC, Corning) in 100 μL or 30 μL media per well, respectively. The concentrations used were experimentally determined to ensure logarithmic growth during the duration of the experiment and prevent adverse effects on cell growth by DMSO exposure. The plates were incubated at 37°C in 5% CO2 for 24 h before treatment. Stock solutions of test compounds (10 mM in DMSO) in nine 3-fold serial dilutions were dispensed via pintool (Biomek). The final concentration of DMSO was 0.3% (v/v) in each well. The plates were incubated for 72 h at 37°C in 5% CO2 and then quenched with CellTiter-Glo® reagent (50 μL/well in 96-well plate, 30 μL/well in 384-well plate) at RT. The positive controls included staurosporine (10 μM), gambogic acid (10 μM), and a toxic quinoline generated in-house. Plates were then incubated at RT for 20 min and centrifuged at 1000 rpm for 1 min. The cytotoxicity assay was performed by using the CellTiter-Glo® Luminescent Cell Viability Assay kit (G7570, Promega, Madison, WI, United States) according to the manufacturer’s instructions. Luminescence was recorded in an Envision plate reader (PerkinElmer).
Cell viability assays (MTT or PI staining assays) in SUM-149, SUM-190, MDA-MB-231, and MCF10A cells were performed as we previously described ([Suarez-Arroyo et al., 2016]).
For the CTG assay, 3 or 4 replicate assays were conducted for each experimental condition, and a minimum of 3 independent experiments were conducted for cellular assays. The mean luminescence of each experimental treatment group was normalized as a percentage of the mean intensity of untreated controls. EC50 values (μM) were calculated by Pipeline Pilot Software (Accelrys, Enterprise Platform, San Diego, CA, United States). EC50 values (μM) from the viability assay were calculated from dose response curve-fitting via non-linear regression by using GraphPad Prism (Version 7.0, San Diego, CA, United States). For cell viability, colony formation, cell-cycle progression, cell death, and western blot assays, the analyses were performed via one-way or two-way ANOVA with post-testing for each condition (concentration, cell cycle stage, apoptotic event, cell line) by using GraphPad Prism.

[6] = system: Sup-B15 cells; test: Cell Titer Glo viability assay, Sup-B15; type: cell-based; details: Homo sapiens, 72-h treatment
Procedure: as §2, §3

[7] = system: KOPN-8 cells; test: Cell Titer Glo viability assay, KOPN-8; type: cell-based; details: Homo sapiens, 72-h treatment
Procedure: as §2, §3

Q: What does the source list for `CC(C)[C@@H](C)/C=C/[C@@H](C)[C@H]1CC[C@@H]2[C@]1(C)CC[C@H]1[C@]23C=C[C@]2(C[C@@H](O)CC[C@]12C)OO3` [EP, ergosterol peroxide]?
A: ROS increase (fold) ([1]; GA-01, ergosterol, 5,6-dehydroergosterol 50 µM, EP 20 µM): at least a twofold; ROS formation reduction when co-treated with NAC ([1]; NAC 100 µM, TBHP 100 µM): 9–25%; ROS formation (fold) [2]: twofold; caspase 3/7 activity [3]: increase caspase 3/7 activity; viability (GF-AFC) [3]: decrease viability; EC50 [4]: 7 to 22 µM; concentration at which SUM-149 cell viability is significantly reduced ([5]; 72 h): 8 µM; EC50 ([5]; SUM149, 24 h): 34 µM; EC50 ([5]; SUM149, 72 h): 20 µM; EC50 [6]: 9.86 µM; EC50 [7]: 22.4 µM
